Experimental data from US8106055B2, “Substituted amide compounds” (Gruenenthal GmbH, priority 2007, dated 2012).

Key:
[1] = molecular target: T1, bradykinin 1 receptor (B1R) of the rat (Rattus norvegicus, UniProt P97583); assay: Functional investigation on the rat bradykinin 1 receptor (B1R), Ca2+ FLIPR assay in CHO K1 rB1R cells; type: cell-based; settings: test substance 10 μM, Ca2+ FLIPR, CHO K1 rB1R cells; for B1R Ant. r [10 μM] % Inhibition: B1R antagonism rat; for inhibition at 10 µM: CHO-K1, B1R antagonism rat, read-out: B1R Ant. r [10 μM] % Inhibition
T1 construct: expressed in transfected cells; host or cells: CHO K1 cells
T1 sequence (P97583 1-337): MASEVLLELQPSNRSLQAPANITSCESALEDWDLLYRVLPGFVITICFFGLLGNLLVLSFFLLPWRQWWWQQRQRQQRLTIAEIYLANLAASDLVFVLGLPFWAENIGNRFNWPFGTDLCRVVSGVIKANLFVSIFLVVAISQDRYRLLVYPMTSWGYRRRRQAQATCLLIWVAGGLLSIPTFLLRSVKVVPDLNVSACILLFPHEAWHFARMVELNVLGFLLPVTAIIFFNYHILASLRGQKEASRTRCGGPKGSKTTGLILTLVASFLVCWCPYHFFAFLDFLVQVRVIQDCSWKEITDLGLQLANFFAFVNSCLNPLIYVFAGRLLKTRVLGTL
How it was run: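 Stably transfected CHO K1 cells loaded with Fluo-4; FLIPR Ca2+ fluorescence peak (ex 488/em 540 nm). Compound added first (agonism vs Lys-Des-Arg9-bradykinin ≥50 nM human, Des-Arg9-bradykinin 10 μM rat), then after 10-20 min agonist at EC80; antagonism as % inhibition, IC50 from concentration series, n=2-3, N≥2.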

[2] = molecular target: T2, human μ opiate receptor (Homo sapiens, UniProt P35372); assay: Affinity for the human μ opiate receptor ([3H]-naloxone displacement, CHO-K1 receptor membrane preparation, SPA); type: binding; settings: test concentration of 1 μM; for inhibition at 1 µM: read-out: μ (binding on the μ opioid receptor, % inhibition)
T2 construct: purchased PerkinElmer Life Sciences, Zaventem, Belgium RB-HOM; host or cells: CHO-K1 cells (membrane preparation)
T2 sequence (P35372 whole entry): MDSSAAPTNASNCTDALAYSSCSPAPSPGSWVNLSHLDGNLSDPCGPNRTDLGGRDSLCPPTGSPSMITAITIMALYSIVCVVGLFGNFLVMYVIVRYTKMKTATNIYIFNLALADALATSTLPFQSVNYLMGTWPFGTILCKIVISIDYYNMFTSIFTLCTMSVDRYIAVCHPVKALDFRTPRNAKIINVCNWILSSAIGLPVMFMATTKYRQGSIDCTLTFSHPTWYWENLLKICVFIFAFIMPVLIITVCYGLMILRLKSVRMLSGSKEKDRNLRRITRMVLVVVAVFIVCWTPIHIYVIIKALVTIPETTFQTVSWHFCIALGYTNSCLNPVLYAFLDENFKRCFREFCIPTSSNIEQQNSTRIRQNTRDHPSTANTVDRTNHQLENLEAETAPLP
How it was run: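 CHO-K1 membranes expressing human μ receptor incubated 90 min at room temperature with 1 nmol/l [3H]-naloxone and WGA-SPA beads in 50 mmol/l Tris-HCl, 0.06% BSA; 100 μmol/l naloxone defines non-specific binding. Values are % inhibition of specific binding at 1 μM; IC50 converted to Ki by Cheng-Prusoff.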

SMILES: COc1ccc(S(=O)(=O)N2CCCCC2COCC(=O)NCC2CCC(C(c3ccc(F)cc3)N(C)C)CC2)cc1OC (single isomer, unassigned) [Example 534]
- B1R Ant. r [10 μM] % Inhibition [1]: −4%
- μ (binding on the μ opioid receptor, % inhibition) ([2]; 1 µM): 24%

SMILES: COc1ccc(S(=O)(=O)N2CCCCC2COCC(=O)NCC2CCC(C(c3ccc(F)cc3)N(C)C)CC2)cc1OC (single isomer, unassigned) [Example 537]
- B1R Ant. r [10 μM] % Inhibition [1]: 8%
- μ (binding on the μ opioid receptor, % inhibition) ([2]; 1 µM): 35%

SMILES: COc1ccc(S(=O)(=O)N2CCCCC2CCOCC(=O)NC2CCC(C(c3cccs3)N(C)C)CC2)cc1 (stereo not drawn) [Example 6, N-(4-((dimethylamino)(thiophen-2-yl)methyl)cyclohexyl)-2-(2-(1-(4-methoxyphenylsulfonyl)piperidin-2-yl)ethoxy)acetamide]
- inhibition at 10 µM [1]: 34%
- inhibition at 1 µM [2]: 99%

SMILES: COc1ccc(S(=O)(=O)N2Cc3ccccc3CC2COCC(=O)NCC2CCC(C(c3cccs3)N(C)C)CC2)cc1 (stereo not drawn) [Example 7, N-((4-((dimethylamino)(thiophen-2-yl)methyl)cyclohexyl)methyl)-2-((2-(4-methoxyphenylsulfonyl)-1,2,3,4-tetrahydroisoquinolin-3-yl)methoxy)acetamide]
- inhibition at 10 µM [1]: 27%
- inhibition at 1 µM [2]: 99%

SMILES: CN(C)C(c1cccs1)C1CCC(CNC(=O)COCCN(C)S(=O)(=O)c2ccc(Cl)cc2Cl)CC1 (stereo not drawn) [Example 8, 2-(2-(2,4-dichloro-N-methylphenylsulfonamido)ethoxy)-N-((4-((dimethylamino)(thiophen-2-yl)methyl)cyclohexyl)methyl)acetamide]
- inhibition at 10 µM [1]: 62%
- inhibition at 1 µM [2]: 98%

SMILES: Cc1cc(C)c(S(=O)(=O)N(C)CCOCC(=O)NC2CCC(C(c3ccccc3)N(C)C)CC2)c(C)c1 (stereo not drawn) [Example 63, N-(4-((dimethylamino)(phenyl)methyl)cyclohexyl)-2-(2-(N,2,4,6-tetramethylphenylsulfamido)ethoxy)acetamide]
- B1R Ant. r [10 μM] % Inhibition [1]: 8%
- μ (binding on the μ opioid receptor, % inhibition) [2]: 94%

SMILES: CN(C)C(c1cccs1)C1CCC(CCNC(=O)COC2CCN(S(=O)(=O)c3cccc(C(F)(F)F)c3)C2)CC1 (stereo not drawn) [Example 96, N-(2-(4-((dimethylamino)(thiophen-2-yl)methyl)cyclohexyl)ethyl)-2-(1-(3-(trifluoromethyl)phenylsulfonyl)pyrrolidin-3-yloxy)acetamide]
- inhibition at 10 µM [1]: 26%
- inhibition at 1 µM [2]: 92%

SMILES: CN(C)C(c1cccs1)C1CCC(CNC(=O)COC2CCN(S(=O)(=O)c3ccc(F)cc3)C2)CC1 (stereo not drawn) [Example 97, N-((4-((dimethylamino)(thiophen-2-yl)methyl)cyclohexyl)methyl)-2-(1-(4-fluorophenylsulfonyl)pyrrolidin-3-yloxy)acetamide]
- inhibition at 10 µM [1]: 28%
- inhibition at 1 µM [2]: 92%

SMILES: COc1cc(C)c(S(=O)(=O)N2CCC(OCC(=O)NC3CCC(C(c4cccs4)N(C)C)CC3)C2)c(C)c1 (stereo not drawn) [Example 98, N-(4-((dimethylamino)(thiophen-2-yl)methyl)cyclohexyl)-2-(1-(4-methoxy-2,6-dimethylphenylsulfonyl)pyrrolidin-3-yloxy)acetamide]
- inhibition at 10 µM [1]: 69%
- inhibition at 1 µM [2]: 91%

SMILES: CN(C)C(c1cccs1)C1CCC(CCNC(=O)COCCN2CCN(S(=O)(=O)c3ccccc3)CC2)CC1 (stereo not drawn) [Example 99, N-(2-(4-((dimethylamino)(thiophen-2-yl)methyl)cyclohexyl)ethyl)-2-(2-(4-(phenylsulfonyl)piperazin-1-yl)ethoxy)acetamide]
- inhibition at 10 µM [1]: -8%
- inhibition at 1 µM [2]: 92%

SMILES: CN(C)C(c1cccs1)C1CCC(CCNC(=O)COC2CCCN(S(=O)(=O)c3ccccc3)C2)CC1 (stereo not drawn) [Example 100, N-(2-(4-((dimethylamino)(thiophen-2-yl)methyl)cyclohexyl)ethyl)-2-(1-(phenylsulfonyl)piperidin-3-yloxy)acetamide]
- inhibition at 10 µM [1]: 27%
- inhibition at 1 µM [2]: 94%

SMILES: CN(C)C(c1cccs1)C1CCC(CNC(=O)COCC2CCCN(S(=O)(=O)c3ccccc3)C2)CC1 (stereo not drawn) [Example 101, N-((4-((dimethylamino)(thiophen-2-yl)methyl)cyclohexyl)methyl)-2-((1-(phenylsulfonyl)piperidin-3-yl)methoxy)acetamide]
- inhibition at 10 µM [1]: 27%
- inhibition at 1 µM [2]: 92%

SMILES: CN(C)C(c1cccs1)C1CCC(CNC(=O)COCCN(Cc2ccccc2)S(=O)(=O)c2ccccc2)CC1 (stereo not drawn) [Example 102, 2-(2-(N-benzylphenylsulfonamido)ethoxy)-N-((4-((dimethylamino)(thiophen-2-yl)methyl)cyclohexyl)methyl)acetamide]
- inhibition at 10 µM [1]: -12%
- inhibition at 1 µM [2]: 94%

SMILES: CCN(CCOCC(=O)NCCC1CCC(C(c2cccs2)N(C)C)CC1)S(=O)(=O)c1c(C)cc(OC)c(C)c1C (stereo not drawn) [Example 103, N-(2-(4-((dimethylamino)(thiophen-2-yl)methyl)cyclohexyl)ethyl)-2-(2-(N-ethyl-4-methoxy-2,3,6-trimethylphenylsulfonamido)ethoxy)acetamide]
- inhibition at 10 µM [1]: 84%
- inhibition at 1 µM [2]: 94%

SMILES: COc1cc(C)c(S(=O)(=O)N2CCC(OCC(=O)NCC3CCC(C(c4cccs4)N(C)C)CC3)CC2)c(C)c1C (stereo not drawn) [Example 104, N-((4-((dimethylamino)(thiophen-2-yl)methyl)cyclohexyl)methyl)-2-(1-(4-methoxy-2,3,6-trimethylphenylsulfonyl)piperidin-4-yloxy)acetamide]
- inhibition at 10 µM [1]: -10%
- inhibition at 1 µM [2]: 90%

SMILES: COc1ccc(S(=O)(=O)N2CCCC2COCC(=O)NCC2CCC(C(c3cccs3)N(C)C)CC2)cc1 (stereo not drawn) [Example 105, N-((4-((dimethylamino)(thiophen-2-yl)methyl)cyclohexyl)methyl)-2-((1-(4-methoxyphenylsulfonyl)pyrrolidin-2-yl)methoxy)acetamide]
- inhibition at 10 µM [1]: 24%
- inhibition at 1 µM [2]: 93%

SMILES: COc1ccc(S(=O)(=O)N2CCCCC2COCC(=O)NCC2CCC(C(c3ccccc3)N(C)C)CC2)c(OC)c1 (stereo not drawn) [Example 106, 2-((1-(2,4-dimethoxyphenylsulfonyl)piperidin-2-yl)methoxy)-N-((4-((dimethylamino)(phenyl)methyl)cyclohexyl)methyl)acetamide]
- inhibition at 10 µM [1]: 13%
- inhibition at 1 µM [2]: 92%

SMILES: COc1ccc(S(=O)(=O)N2CCCCC2COCC(=O)NCCC2CCC(C(c3cccs3)N(C)C)CC2)c(OC)c1 (stereo not drawn) [Example 107, 2-((1-(2,4-dimethoxyphenylsulfonyl)piperidin-2-yl)methoxy)-N-(2-(4-((dimethylamino)(thiophen-2-yl)methyl)cyclohexyl)ethyl)acetamide]
- inhibition at 10 µM [1]: 49%
- inhibition at 1 µM [2]: 92%

SMILES: CN(C)C(c1ccccc1)C1CCC(CNC(=O)COCCN(C)S(=O)(=O)c2ccc(Cl)cc2)CC1 (stereo not drawn) [Example 110, 2-(2-(4-chloro-N-methylphenylsulfonamido)ethoxy)-N-((4-((dimethylamino) (phenyl)methyl)cyclohexyl)methyl)acetamide]
- inhibition at 10 µM [1]: 10%
- inhibition at 1 µM [2]: 87%

SMILES: COc1cc(C)c(S(=O)(=O)N(C)CCOCC(=O)NC2CCC(C(c3cccs3)N(C)C)CC2)c(C)c1 (stereo not drawn) [Example 111, N-(4-((dimethylamino)(thiophen-2-yl)methyl)cyclohexyl)-2-(2-(4-methoxy-N,2,6-trimethylphenylsulfonamido)ethoxy)acetamide]
- inhibition at 10 µM [1]: 104%
- inhibition at 1 µM [2]: 92%

SMILES: CN(C)C(c1ccccc1)C1CCC(CNC(=O)COCCN(C)S(=O)(=O)c2ccc(F)cc2)CC1 (stereo not drawn) [Example 112, N-((4-((dimethylamino)(phenyl)methyl)cyclohexyl)methyl)-2-(2-(4-fluoro-N-methylphenylsulfonamido)ethoxy)acetamide]
- inhibition at 10 µM [1]: 5%
- inhibition at 1 µM [2]: 82%

SMILES: CN(C)C(c1ccccc1)C1CCC(CNC(=O)COC2CCN(S(=O)(=O)c3cccc(C(F)(F)F)c3)C2)CC1 (stereo not drawn) [Example 113, N-((4-((dimethylamino)(phenyl)methyl)cyclohexyl)methyl)-2-(1-(3-(trifluoromethyl)phenylsulfonyl)pyrrolidin-3-yloxy)acetamide]
- inhibition at 10 µM [1]: 28%
- inhibition at 1 µM [2]: 90%

SMILES: CN(C)C(c1ccccc1)C1CCC(CNC(=O)COC2CCCN(S(=O)(=O)c3ccccc3)C2)CC1 (stereo not drawn) [Example 114, N-((4-((dimethylamino)(phenyl)methyl)cyclohexyl)methyl)-2-(1-(phenylsulfonyl)piperidin-3-yloxy)acetamide]
- inhibition at 10 µM [1]: 8%
- inhibition at 1 µM [2]: 85%

SMILES: CN(C)C(c1cccs1)C1CCC(CCNC(=O)COCC2CCCN(S(=O)(=O)c3ccccc3)C2)CC1 (stereo not drawn) [Example 115, N-(2-(4-((dimethylamino)(thiophen-2-yl)methyl)cyclohexyl)ethyl)-2-((1-(phenylsulfonyl)piperidin-3-yl)methoxy)acetamide]
- inhibition at 10 µM [1]: 21%
- inhibition at 1 µM [2]: 91%
